“Also recorded” adds a separate entry of the source.
Columns and labels:
ASFV fluorescent virus [1] = type: cell-based, African swine fever virus (ASFV)
ASFV fluorescent virus [2] = experiment: microbe, parasite or virus in culture; type: cell-based, African swine fever virus (ASFV)
ASFV fluorescent virus [3] = type: cell-based, African swine fever virus (ASFV); remark: listed apart in the source
D1133L RNA of ASFV = type: cell-based
D1133L protein of ASFV = type: cell-based
p30 protein of ASFV = type: cell-based, African swine fever virus (ASFV)
p72 protein of ASFV = type: cell-based, African swine fever virus (ASFV)
PAM cells = details: pig

C[C@@H](O[C@H]1OCCN(Cc2n[nH]c(=O)[nH]2)[C@H]1c1ccc(F)cc1)c1cc(C(F)(F)F)cc(C(F)(F)F)c1 [aprepitant, 5-[2(R)-[1(R)-[3,5-bis(trifluoromethyl)phenyl]ethoxy]-3(S)-(4-fluorophenyl)morpholino-4-ylmethyl]-3,4-dihydro-2H-1,2,4-triazol-3-one]
fluorescence of ASFV fluorescent virus in infected cells (ASFV fluorescent virus [1]): gradually becomes darker; also recorded: completely disappears | ASFV genome copy number (ASFV fluorescent virus [2]): reduced | inhibition at 22 µM (ASFV fluorescent virus [2]; African swine fever virus, 48 h, read-out: inhibition of ASFV genome copy number): > 50% | TCID50 of ASFV fluorescent virus (ASFV fluorescent virus [3]): reduce the TCID50; also recorded: minimum | inhibition rate of D1133L RNA expression level (D1133L RNA of ASFV): higher than 50% | expression level of D1133L protein (D1133L protein of ASFV): significantly decreased | expression level of p30 protein (p30 protein of ASFV): significantly decreased | expression level of p72 protein (p72 protein of ASFV): significantly decreased | cell viability (PAM cells): more than 50%

From patent publication US11883411B2 (priority 2022, dated 2024)
